Here are results for five compounds from patent publication US8420335B2, “Inhibition of GASC1” (Kobenhavns Universitet, priority 2006, dated 2013).

Entries after “also recorded” stand apart in the source; their conditions may differ. Like-named read-outs stand apart in the source and are kept apart here.

In one experiment the target is T1, GASC1 (Homo sapiens, UniProt Q9H3R0).
T1 construct: Full-length amino-terminally hexahistidine-tagged human GASC1 baculovirus transfer vector; made in house; host or cells: baculovirus-infected insect cells (pAcHLT-A transfer vector, Bakpak6)
T1 sequence (Q9H3R0 1-1056): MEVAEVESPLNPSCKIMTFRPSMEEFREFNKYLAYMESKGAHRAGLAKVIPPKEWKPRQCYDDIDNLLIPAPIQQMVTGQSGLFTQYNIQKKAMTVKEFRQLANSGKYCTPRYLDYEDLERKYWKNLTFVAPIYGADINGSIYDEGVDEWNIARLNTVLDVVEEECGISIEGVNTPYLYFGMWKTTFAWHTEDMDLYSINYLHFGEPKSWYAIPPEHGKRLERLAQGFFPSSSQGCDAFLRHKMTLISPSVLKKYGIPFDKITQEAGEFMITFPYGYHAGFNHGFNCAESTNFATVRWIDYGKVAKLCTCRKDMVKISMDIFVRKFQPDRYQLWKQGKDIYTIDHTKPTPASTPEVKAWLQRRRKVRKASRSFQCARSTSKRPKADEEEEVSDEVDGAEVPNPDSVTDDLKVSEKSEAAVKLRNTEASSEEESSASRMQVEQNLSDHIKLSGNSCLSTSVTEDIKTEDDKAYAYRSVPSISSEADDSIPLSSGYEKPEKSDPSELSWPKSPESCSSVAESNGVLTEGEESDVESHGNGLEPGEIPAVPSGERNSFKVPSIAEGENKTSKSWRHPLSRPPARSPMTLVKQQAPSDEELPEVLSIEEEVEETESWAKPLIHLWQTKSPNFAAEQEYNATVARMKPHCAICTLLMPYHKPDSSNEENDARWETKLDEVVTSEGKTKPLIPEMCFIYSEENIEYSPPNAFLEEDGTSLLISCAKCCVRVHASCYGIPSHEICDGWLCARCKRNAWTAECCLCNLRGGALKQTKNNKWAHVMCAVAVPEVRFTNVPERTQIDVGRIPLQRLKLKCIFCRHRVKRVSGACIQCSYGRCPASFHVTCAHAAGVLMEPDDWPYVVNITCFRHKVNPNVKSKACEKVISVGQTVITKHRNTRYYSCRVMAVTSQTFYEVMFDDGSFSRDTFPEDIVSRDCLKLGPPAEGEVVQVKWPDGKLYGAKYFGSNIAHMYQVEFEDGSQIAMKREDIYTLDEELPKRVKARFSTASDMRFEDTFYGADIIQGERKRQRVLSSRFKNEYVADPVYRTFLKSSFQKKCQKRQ
As to the kind of experiment: Demethylation assay: recombinant His-GASC1 with bulk histones or H3K9me3 peptide, western blotting. It is filed as biochemical. For orientation: In western blotting, separated proteins are transferred to a membrane and probed.

The next experiment has as its system KYSE-150 cells. As to the kind of experiment: Overnight quercetin treatment of KYSE-150 cells: H3K9me3 by immunofluorescence and western blotting, growth, senescence. It is filed as cell-based, human.
The next experiment relates to U2OS. Description: Quercetin treatment of U2OS cells: H3K9me3, senescent-like phenotype, growth. It counts as cell-based, human. To be noted: low/moderate GASC1 level.
For another experiment, the system named is KYSE-450 cells. As to the kind of experiment: Quercetin treatment of KYSE-450 cells: H3K9me3, senescent-like phenotype, growth. It counts as cell-based, human. To be noted: KYSE-450, low/moderate GASC1 level. From the text:
(§1) The biological effects of quercetin have previously been attributed to inhibition of topoisomerase I^43, modulation of protein and lipid kinase signalling pathways^44 and scavenging of reactive oxygen species^45, In light of the present findings it is tempting to speculate that the anti-cancer effect of quercetin might at least partially by explained by its inhibitory effect on GASC1 and other members of the JMJD2 subfamily.

The subject of a further experiment is WI38. As to the kind of experiment: Quercetin treatment of WI38 cells: H3K9me3, senescent-like phenotype, growth. It counts as cell-based. As to conditions: WI38, low/moderate GASC1 level.
Excerpt: as §1

Where [1] appears, read: His-GASC1, bulk histones, co-factors FeSO4 and α-ketoglutarate, 30 min at 37° C., western blotting.

Consider `O=S(=O)([O-])[O-].[Ni+2]` [NiSO4], for which, at GASC1 (setting [1]), the “inhibition of GASC1-mediated demethylation of H3K9me3” value (shortened to “inhibition … of H3K9me3”) was “inhibit GASC1 demethylation activity; also recorded: able to inhibit the demethylation reaction effectively”.

For `O=C(O)CNC(=O)C(=O)O` [N-oxalylglycine], the “inhibition … of H3K9me3” value at GASC1 (setting [1]) is on record as “able to inhibit the demethylation reaction effectively”.

In the case of `[Cl-].[Cl-].[Co+2]` [CoCl2], the “inhibition … of H3K9me3” value on GASC1 is on record as “inhibit GASC1 demethylation activity; also recorded: able to inhibit the demethylation reaction effectively”.

With `O=c1c(O)c(-c2ccc(O)c(O)c2)oc2cc(O)cc(O)c12` [quercetin], the growth rate result with KYSE-150 cells (data not shown) is given as “marked decrease of growth rate”. Moreover, the “phenotype (cell morphology, SAHFs, β-gal staining)” value in the experiment with KYSE-150 cells (data not shown) was “senescent-like phenotype”. Also, the H3K9 trimethylation result in the experiment on KYSE-150 cells (immunofluorescence and western blotting) is given as “staggering increase in H3K9 trimethylation”. The “H3K9me3 increase, senescent-like phenotype and growth inhibition compared with KYSE-150” value is “did not display the same increase in H3K9me3 nor the same senescent-like phenotype and growth inhibition” in the experiment on U2OS; “did not display the same increase in H3K9me3 nor the same senescent-like phenotype and growth inhibition” in the experiment with KYSE-450 cells; “did not display the same increase in H3K9me3 nor the same senescent-like phenotype and growth inhibition” with WI38. For the same compound, the “inhibition … of H3K9me3” value is listed as “able to effectively inhibit GASC1-mediated demethylation of H3K9me3 in vitro” on GASC1 (setting [1]); “able to inhibit the demethylation reaction effectively” on GASC1 (His-GASC1, bulk histones, co-factors FeSO4 and α-ketoglutarate, 30 min at 37° C., western blotting, listed as quercetine).

On to `O=C(O)CN(CCN(CC(=O)O)CC(=O)O)CC(=O)O` [EDTA], for which, on GASC1 (EDTA (chelating iron), 30 min at 37° C., western blotting), the “GASC1 demethylation of H3K9me3 in the presence of EDTA” value is reported as “significantly reduced”.
